Source: patent publication US8263757B2, “Promiscuous HER-2/Neu CD4 T cell epitopes” (Dendreon Corporation, priority 2006, dated 2012)

Legend:
[1] = system: T cell clone HER500.23c21; assay: Minimal epitope: truncated HERp270-284 peptides presented by EBV LcL lines of diverse HLA-DRB1 alleles to HER500.23c21; assay type: cell-based, human; settings: presented by EBV LcL lines representing HLA-DRB1 alleles *0301, *0302, *1301 and *1402
Text: FIG. 5. Graphic depiction of IFNγ production by HER500.23c21 following exposure to peptides presented by EBV LcL lines of diverse HLA-DRb1 alleles. The peptides were 9-mers (SEQ ID NOS:3-9) within the HER-2/Neu peptide 270-284 (SEQ ID NO:2).
FIG. 6. Graphic depiction of IFNγ production by HER500.23c21 following exposure to peptides presented by EBV LcL lines of diverse HLA-DRb1 alleles. The peptides were 10- or 11-mers (SEQ ID NOs:12-15, 10, 1, 16-19 and 11, respectively) within the HER-2/Neu peptide 270-284.
Because of the clear response of HER500.23c21 to HER-2/Neu protein sequences, the specific epitope recognized by HER500.23c21 was mapped using peptides. HER500.23c21 was tested against a panel of 125 individual overlapping 15-mer peptides covering the HER-2/Neu protein sequences within HER500. Each peptide was used at 1 ug/ml with autologous EBV LCL cells as antigen presenting cells. […]
In this series of experiments, additional peptides derived from the HER-2/Neu protein were tested for their potential as promiscuous MHC Class II HER-2/neu epitopes. […] Supernatants were harvested and analyzed for IFNγ production using ELISA. […] Results of the IFNγ produced by clone HER500.23c21 in response to peptide and each HLA-DR allele are reported in pg/mL of IFNγ or as absorbance at 492 nm.

[2] = system: T cell clone HER500.23c21; assay: Antigen-specific stimulation of T cell clone HER500.23c21 by protein antigens presented by autologous PBMC (IFNγ ELISA, IL-2 by HT-2 proliferation); assay type: cell-based, human; settings: autologous PBMC presentation, increasing doses of antigen; for IFNγ and IL-2 production by HER500.23c21 in response to antigen: 48 hours
Protocol: FIG. 1. T cell clone HER500.23c21 is HER-2/Neu specific. (A) HER500 (amino acids ▪ and BA7072 (HER500/GM-CSF fusion protein) ♦ specific IFNγ production by HER500.23c21 was measured using ELISA after autologous PBMC presentation of the antigens; background was also tested ▴. Assay was set up in triplicate in 96 well round bottom plates in complete IMDM media with 10% FBS. Autologous PBMCs were used at 2×10^5 cells/well and T cell clone HER500.23c21 was added at 1×10^5 cells/well. Antigens were at the final concentrations shown. Assay was incubated for 48 hours at 37° C. with 5% CO2 and supernatant was removed from wells to test for cytokine production. (A) IFNγ production. Data points shown represent the calculated pg/mL for each antigen concentration. (B) IL-2 production for the same assay was measured using HT-2 cell proliferation. Data points represent the mean CPM values for each antigen concentration.
Identification and Characterization of HER-2/neu specific T cell clones. Clones were screened for antigen specificity using autologous PBMC and antigen or autologous EBV-LcL and Her500 peptides. Stimulations were set up in 96 well round bottom plates in cRPMI+10% FBS media and incubated for 48 hours at 37° C. with 5% CO2. Additionally, clones were stained for CD4 and CD8 surface expression by flow cytometry.
Cytokine Production. To determine cytokine production in the antigen specific stimulation assays, after 48 hours, 200 μL of supernatant was pulled from cultures and tested for both IL-2 and IFNγ production. IL-2 production was measured using the IL-2 dependent line HT-2 (ATCC). HT-2 cells were grown in IMDM with 10% FBS and 100 uM NEAA, 1 mM Sodium Pyruvate, 2 mM L-glutamine, […], 50 U/mL Streptomycin, 20 mM HEPES and 20 uM 2-Mercaptoethanol (cIMDM+10% FBS) and fed twice a week with 20 ng/mL rIL-2. For the assay, 4 days after HT-2 cells were split, cells were washed with IMDM+10% FBS to remove all rIL-2, and cells were added to 96 well round bottom plates at 1×10^4 cells/well in cIMDM+10% FBS. Supernatants from antigen specific stimulation were added to wells and plates were incubated 24-30 hours at 37° C. The following day 1 μCi of ^3[H] TdR was added for the final 6 hours of the assay and plates were harvested to glass fiber filter mats and DNA incorporation of the radioisotope, or proliferative response, was determined by counts per minute using a liquid scintillation counter (PerkinElmer Life and Analytical Sciences, Inc. Boston, Mass.). IFNγ production was measured using anti-human IFNγ antibody pairs for ELISA (BD Pharmingen, San Diego, Calif.). […] 2M HCl was added to stop the reaction and plates were read for absorbance at 492 nm on a spectrophotometer. […]

Substance | Stimulation of HER500.23c21 [1] | dose dependence of HER500.23c21 response to protein [2] | IFNγ and IL-2 production by HER500.23c21 in response to antigen [2]
VTYNTDTFESM (HER-2p270-284 11-mer) [SEQ ID NO:10, 11-mer truncation of HERp270-284] | successful | – | –
BA7072: proprietary recombinant fusion protein: HER500 expressed as a fusion protein with hGM-CSF | – | dose dependent manner | specifically produced IFNγ and IL-2
HER500: recombinant protein containing sequences from both the ECD and ICD of HER-2/neu; HER-2/neu portion of BA7072 | – | dose dependent manner | specifically produced IFNγ and IL-2
TYNTDTFESMP (HER-2p270-284 11-mer) [SEQ ID NO:11, 11-mer truncation of HERp270-284] | successful | – | –
